Patent US20250275991A1, “ORAL COMPLEMENT FACTOR D INHIBITORS” (BioCryst Pharmaceuticals, Inc, priority 2019, published 2025)

Biological target: Factor D (Homo sapiens, UniProt P00746)
Test: Factor D esterolytic assay
Format: biochemical
Conditions: substrate Z-Lys-SBzl 1.29 mM, 100 mM HEPES, 500 mM NaCl, pH 7.5, 10% DMSO, tested a minimum of three times
Experimental: The IC50 value of a compound (i.e., the concentration of the compound that inhibits 50% of the enzymatic activity) was calculated according to the procedure reported in U.S. Pat. No. 6,653,340 B1, e.g., column 74 (incorporated by reference).
Specifically, the compounds were dissolved in a stock solution of DMSO at 10.0 or 100 mM. A portion of this stock solution was added to assay buffer in a final volume of 50 μL. Controls included buffer alone and enzyme solutions to which DMSO was added. Substrate was added to the reaction wells immediately or after incubation at room temperature. The reaction rates were measured spectrophotometrically by the generation of product at 405 nm for 600 sec. Background absorbance at 690 nm was measured and subtracted from the absorbance at 405 nm for each well.
The reaction rate for enzyme alone was compared to the rate of enzyme in the presence of inhibitor and the percent inhibition was calculated as shown below: […]
An established esterolytic assay for the measurement of Factor D activity and inhibition of Factor D activity was used (Kam, C. M.; McRae, B. J.; Harper, J. W.; Niemann, M. A.; Volanakis, J. E.; Powers, J. C. Human complement proteins D, C2, and B Active site mapping with peptide thioester substrates. J Biol. Chem. 1987, 262, 3444-3451). For this assay Z-Lys-SBzl, 1.29 mM (Kim, S.; Narayana, S. V. L; Volanakis, J. E. Mutational analysis of the substrate binding site of human complement Factor D. Biochemistry. 1994, 33, 14393-14399.) was used as the substrate for Factor D ([…]). Hydrolysis of this compound by Factor D liberated a free sulfhydryl group which is then reacted with 5,5′-dithiobis(2nitrobenzoic acid) producing an intense yellow color (Habeeb, A. F. S. A. Reaction of protein sulfhydryl groups with Ellman's Reagent. Methods in Enzymol. 1976, 25, 457-464). The assays were performed in 96 well microtiter plates and rates of hydrolysis were monitored at 405 nm on a Biotek Synergy H1 plate reader. Hydrolysis rates were reported as change in mOD/min. The assay was conducted in 100 mM HEPES, 500 mM NaCl, pH 7.5 containing 10% DMSO in a final volume of 50 μL per well.
An IC50, a compound concentration which inhibits 50% of the enzymatic activity, was calculated. Compounds in the examples were tested a minimum of three times.

Sequence of Factor D (P00746 26-253): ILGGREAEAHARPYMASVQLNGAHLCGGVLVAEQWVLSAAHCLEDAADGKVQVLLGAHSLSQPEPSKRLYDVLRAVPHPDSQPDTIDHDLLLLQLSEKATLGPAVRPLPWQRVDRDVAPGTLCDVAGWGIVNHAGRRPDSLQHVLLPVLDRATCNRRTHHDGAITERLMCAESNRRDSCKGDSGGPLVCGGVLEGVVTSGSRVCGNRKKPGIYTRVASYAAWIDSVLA

Row | SMILES | IC50 [nM]
1 | NCc1cc(-c2cc(COc3cc(C(F)(F)F)ccc3CC(=O)O)cc3ccoc23)ccn1 [Compound 57b, 2-(2-((7-(2-(aminomethyl)pyridin-4-yl)benzofuran-5-yl)methoxy)-4-(trifluoromethyl)phenyl)acetic acid] | < 1000
2 | CC(C)Oc1c(COc2ccccc2CC(=O)O)cc(-c2cccc(CN)c2)c2occc12 [Compound 66f, 2-(2-((7-(3-(aminomethyl)phenyl)-4-isopropoxybenzofuran-5-yl)methoxy)phenyl)acetic acid] | < 1000
3 | CCCCCCC(=O)NCc1ccc(CC(=O)O)c(OCc2cc(-c3cccc(CN)c3)c3occc3c2)c1 [Compound 26f, 2-(2-((7-(3-(aminomethyl)phenyl)benzofuran-5-yl)methoxy)-4-(heptanamidomethyl)phenyl)acetic acid] | < 1000
4 | NCc1cccc(-c2cc(COc3cc(C(=O)O)ccc3CC(=O)O)cc3ccoc23)c1 [Compound 9d, 3-((7-(3-(aminomethyl)phenyl)benzofuran-5-yl)methoxy)-4-(carboxymethyl)benzoic acid] | < 1000
5 | CC(C)OC(=O)NCc1ccc(CC(=O)O)c(OCc2cc(-c3cccc(CN)c3)c3occc3c2)c1 [Compound 27c, 2-(2-((7-(3-(aminomethyl)phenyl)benzofuran-5-yl)methoxy)-4-((isopropoxycarbonylamino)methyl)phenyl)acetic acid] | < 1000
6 | CCc1ccc(CC(=O)O)c(OCc2cc(-c3ccnc(CN)c3F)c3oc(F)cc3c2)c1 [Compound 59i, 2-(2-((7-(2-(aminomethyl)-3-fluoropyridin-4-yl)-2-fluorobenzofuran-5-yl)methoxy)-4-ethylphenyl)acetic acid] | < 1000
7 | COCc1cc2cc(COc3cc(C(C)=O)ccc3CC(=O)O)cc(-c3cccc(CN)c3)c2o1 [Compound 12j, 2-(4-acetyl-2-((7-(3-(aminomethyl)phenyl)-2-(methoxymethyl)benzofuran-5-yl)methoxy)phenyl)acetic acid] | < 1000
8 | NCc1cccc(-c2cc(C(Oc3ccccc3CC(=O)O)C(=O)O)cc3ccoc23)c1 (stereo not drawn) [Compound 35e, 2-(7-(3-(aminomethyl)phenyl)benzofuran-5-yl)-2-(2-(carboxymethyl)phenoxy)acetic acid] | < 1000
9 | CC(=O)c1ccc(CC(=O)O)c(OCc2cc(-c3ccnc(CN)c3F)c3occ(C(F)(F)F)c3c2)c1 [Compound 13f, 2-(4-acetyl-2-((7-(2-(aminomethyl)-3-fluoropyridin-4-yl)-3-(trifluoromethyl)benzofuran-5-yl)methoxy)phenyl)acetic acid] | < 1000
10 | NCc1nccc(-c2cc(COc3cc(C(F)(F)F)ccc3CC(=O)O)cc3ccoc23)c1F [Compound 56f, 2-(2-((7-(2-(aminomethyl)-3-fluoropyridin-4-yl)benzofuran-5-yl)methoxy)-4-(trifluoromethyl)phenyl)acetic acid] | < 1000
11 | COc1c(COc2ccccc2CC(=O)O)cc(-c2cccc(CN)c2)c2occc12 [Compound 67f, 2-(2-((7-(3-(aminomethyl)phenyl)-4-methoxybenzofuran-5-yl)methoxy)phenyl)acetic acid] | < 1000
12 | NCc1cccc(-c2cc(COc3ccccc3C(NC(=O)C3CC3)C(=O)O)cc3ccoc23)c1 (single isomer, unassigned; (+)) [Compound 52f, (+)-2-(2-((7-(3-(aminomethyl)phenyl)benzofuran-5-yl)methoxy)phenyl)-2-(cyclopropanecarboxamido)acetic acid] | < 1000
13 | NCc1cccc(-c2cc(COc3ccccc3CC(=O)O)c(C3CC3)c3ccoc23)c1 [Compound 68g, 2-(2-((7-(3-(aminomethyl)phenyl)-4-cyclopropylbenzofuran-5-yl)methoxy)phenyl)acetic acid] | < 1000
14 | Cc1ccc(CC(=O)O)c(OCc2cc(-c3ccnc(CN)c3)c3occc3c2)c1C [Compound 22h, 2-(2-((7-(2-(aminomethyl)pyridin-4-yl)benzofuran-5-yl)methoxy)-3,4-dimethylphenyl)acetic acid] | < 1000
15 | CCOP(=O)(NCc1ccc(CC(=O)O)c(OCc2cc(-c3cccc(CN)c3)c3occc3c2)c1)OCC [Compound 32c, 2-(2-((7-(3-(aminomethyl)phenyl)benzofuran-5-yl)methoxy)-4-((diethoxyphosphorylamino)methyl)phenyl)acetic acid] | < 1000
16 | NCc1cccc(-c2cc(C(CC(=O)O)Oc3ccccc3CC(=O)O)cc3ccoc23)c1 (stereo not drawn) [Compound 62g, 3-(7-(3-(aminomethyl)phenyl)benzofuran-5-yl)-3-(2-(carboxymethyl)phenoxy)propanoic acid] | < 1000
17 | NCc1nccc(-c2cc(COc3ccc(F)cc3CC(=O)O)cc3c(C(F)(F)F)coc23)c1F [Compound 11m, 2-(2-((7-(2-(aminomethyl)-3-fluoropyridin-4-yl)-3-(trifluoromethyl)benzofuran-5-yl)methoxy)-5-fluorophenyl)acetic acid] | < 1000
18 | NCc1cc(-c2cc(COc3ccccc3CC(=O)O)cc3ccoc23)c[nH]1 [Compound 8g, 2-(2-((7-(5-(aminomethyl)-1H-pyrrol-3-yl)benzofuran-5-yl)methoxy)phenyl)acetic acid] | 1000 to 10000
19 | NC(CC(F)(F)F)c1cccc(-c2cc(COc3ccccc3CC(=O)O)cc3ccoc23)c1 (stereo not drawn) [Compound 41e, 2-(2-((7-(3-(1-amino-3,3,3-trifluoropropyl)phenyl)benzofuran-5-yl)methoxy)phenyl)acetic acid] | 1000 to 10000
20 | NC(CF)c1cccc(-c2cc(COc3cc(F)ccc3CC(=O)O)cc3ccoc23)c1 (single isomer, unassigned; (+)) [Compound 15f, (+)-2-(2-((7-(3-(1-amino-2-fluoroethyl)phenyl)benzofuran-5-yl)methoxy)-4-fluorophenyl)acetic acid] | < 1000
21 | NCc1cccc(-c2cc(COc3ccccc3CC(=O)O)cc3c(F)coc23)c1F [Compound 45b, 2-(2-((7-(3-(aminomethyl)-2-fluorophenyl)-3-fluorobenzofuran-5-yl)methoxy)phenyl)acetic acid] | < 1000
22 | COC(=O)Nc1ccc(CC(=O)O)c(OCc2cc(-c3cccc(CN)c3)c3occc3c2)c1 [Compound 19i, 2-(2-((7-(3-(aminomethyl)phenyl)benzofuran-5-yl)methoxy)-4-((methoxycarbonyl)amino)phenyl)acetic acid] | < 1000
23 | CCC(N)c1cc(-c2cc(COc3ccccc3CC(=O)O)cc3ccoc23)cs1 (stereo not drawn) [Compound 1j, 2-(2-((7-(5-(1-aminopropyl)thiophen-3-yl)benzofuran-5-yl)methoxy)phenyl)acetic acid] | 1000 to 10000
24 | CS(=O)(=O)NCc1ccc(CC(=O)O)c(OCc2cc(-c3cccc(CN)c3)c3occc3c2)c1 [Compound 33c, 2-(2-((7-(3-(aminomethyl)phenyl)benzofuran-5-yl)methoxy)-4-(methylsulfonamidomethyl)phenyl)acetic acid] | < 1000
25 | NCc1cccc(-c2cc(C(=O)Nc3ccccc3CC(=O)O)cc3c2ccn3-c2ccccc2)c1 [Compound 71e, 2-(2-(4-(3-(aminomethyl)phenyl)-1-phenyl-1H-indole-6-carboxamido)phenyl)acetic acid] | < 1000
26 | O=CNCc1nccc(-c2cc(COc3ccccc3CC(=O)O)cc3ccoc23)c1F [Compound 36f, 2-(2-((7-(3-fluoro-2-(formamidomethyl)pyridin-4-yl)benzofuran-5-yl)methoxy)phenyl)acetic acid] | < 1000
27 | NCc1cccc(-c2cc(COc3ccccc3CC(=O)O)c(OCc3ccncc3)c3ccoc23)c1 [Compound 80g, 2-(2-((7-(3-(aminomethyl)phenyl)-4-(pyridin-4-ylmethoxy)benzofuran-5-yl)methoxy)phenyl)acetic acid] | < 1000
28 | NCc1ccn(-c2cc(COc3ccccc3CC(=O)O)cc3ccoc23)c1 [Compound 63f, 2-(2-((7-(3-(aminomethyl)-1H-pyrrol-1-yl)benzofuran-5-yl)methoxy)phenyl)acetic acid] | 1000 to 10000
29 | CC(N)c1ccc(CC(=O)O)c(OCc2cc(-c3cccc(CN)c3)c3occc3c2)c1 (single isomer, unassigned; (+)) [Compound 60a, (+)-2-(4-(1-aminoethyl)-2-((7-(3-(aminomethyl)phenyl)benzofuran-5-yl)methoxy)phenyl)acetic acid] | < 1000
30 | CC(Oc1ccccc1CC(=O)O)c1cc(-c2cccc(CN)c2)c2occc2c1 (single isomer, unassigned; (+)) [Compound 77f, (+)-2-(2-(1-(7-(3-(aminomethyl)phenyl)benzofuran-5-yl)ethoxy)phenyl)acetic acid] | < 1000
